# Laboratory results reported in PubChem BioAssay AID651630 (Sanford-Burnham Center for Chemical Genomics, 2012).
# Active and inactive are the calls of the source.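 Rule for the calls: active = lipid-stain IC50 at or below a set limit, with nuclear-stain toxicity IC50 at least five times higher; inactive = the rest.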
# Experiments:
# DAPI = experiment: TAG lipid buildup inhibition with viability readout – cell-based, panel, Nile Red and DAPI fluorescence, H9c2, dose response (AID 651630); conditions: H9c2 cells, DAPI nuclear fluorescence (cytotoxicity counter-readout), oleic acid;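 note: cells exposed to compound overnight before fixation and staining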
# TAG = experiment: as above; conditions: H9c2 cells, Nile Red TAG fluorescence, oleic acid
SMILES,IC50 cytotoxicity (DAPI nuclear signal decrease) (DAPI; mean of runs),IC50 cytotoxicity (DAPI nuclear signal decrease) (DAPI; run 1),IC50 cytotoxicity (DAPI nuclear signal decrease) (DAPI; run 2),IC50 (TAG; mean of runs),IC50 (TAG; run 1),IC50 (TAG; run 2)
Cc1cc(=O)oc2cc(NC(=O)c3cccc(Br)c3)ccc12,> 25 µM (inactive),> 25 µM,> 25 µM,> 25 µM (inactive),> 25 µM,> 25 µM
COc1ccc(Nc2oc(-c3ccc(Cl)cc3)nc2C#N)cc1,> 25 µM (inactive),> 25 µM,> 25 µM,,17.9 µM,> 25 µM
C=CCN1C(=O)/C(=C2\SC(N3CCOCC3)=NC2=O)c2cc(Br)ccc21,> 25 µM (inactive),> 25 µM,> 25 µM,22.4 µM (inactive),22.5 µM,22.4 µM
Oc1ccc(C[C@H]2CNC(=S)N2CC2CCCN2C[C@H](Cc2ccc(O)cc2)N2C[C@H](Cc3ccc(O)cc3)N(CC3CCCCC3)C2=S)cc1 (stereo partly specified),> 25 µM (inactive),> 25 µM,> 25 µM,9.34 µM,8.74 µM,9.95 µM
Cc1ccc(Nc2nc(OC(C(F)(F)F)C(F)(F)F)nc(N3CCOCC3)n2)cc1,,22.3 µM,> 25 µM,7.62 µM,7.92 µM,7.32 µM
COc1ccc(-c2cc(CNc3nc(NC(C)C)nc4cc(-c5ccccc5)sc34)on2)cc1,> 25 µM (inactive),> 25 µM,> 25 µM,6.39 µM,6.47 µM,6.31 µM
C[C@H](O)C#Cc1ccc2c(c1)O[C@@H](CN(C)Cc1ccc(-c3ccccc3)cc1)[C@H](C)CN([C@@H](C)CO)S2(=O)=O,> 25 µM (inactive),> 25 µM,> 25 µM,,> 25 µM,17.9 µM
Nc1c(C(=O)NC2CCCC2)c2nc3ccccc3nc2n1/N=C/c1cccnc1,> 25 µM (inactive),> 25 µM,> 25 µM,19 µM (inactive),15 µM,23 µM
CCC(C)(C)NC(=O)C(c1ccc(OC)cc1)N(Cc1ccco1)C(=O)CCC(=O)Nc1cc(C)on1 (stereo unspecified),> 25 µM (inactive),> 25 µM,> 25 µM,17.9 µM (inactive),21.1 µM,14.7 µM
COc1cccc(/C=C/C(=C2\C(=O)N(c3ccccc3)N=C2C)c2ccc(Br)cc2)c1OC,> 25 µM (inactive),> 25 µM,> 25 µM,5.18 µM,5.94 µM,4.43 µM
CN(C)CCNC(=O)c1cccc(-c2cnc3c(NC=O)cc(-c4cccc(C(F)(F)F)c4)cn23)c1,> 25 µM (inactive),> 25 µM,> 25 µM,> 25 µM (inactive),> 25 µM,> 25 µM
Clc1ccc(-c2csc(NNC3=NCCCCC3)n2)cc1,,23.9 µM,> 25 µM,,< 0.78 µM,0.875 µM
COc1cc([C@@H]2c3cc4c(cc3[C@H](O)[C@H]3COC(=O)[C@H]23)OCO4)cc(OC)c1OC,> 25 µM (inactive),> 25 µM,> 25 µM,> 25 µM (inactive),> 25 µM,> 25 µM
CCOC(=O)Nc1ccc2c(c1)C(=NNC(=S)NC)c1ccccc1-2,,> 25 µM,9.75 µM,> 25 µM (inactive),> 25 µM,> 25 µM
Cc1cc(NC(=O)c2cc(-c3ccncc3)nc3c(C)cccc23)no1,> 25 µM (inactive),> 25 µM,> 25 µM,11.5 µM,10.5 µM,12.5 µM
Cc1cccc2c(N=Nc3ccc(S(=O)(=O)Nc4ccc(Cl)cc4)cc3[N+](=O)[O-])c(O)[nH]c12,> 25 µM (inactive),> 25 µM,> 25 µM,12.2 µM,16.5 µM,7.89 µM
COc1cc(C(CCN2CCCCC2)c2c(OC)cc(OC)c3c(-c4ccccc4)cc(=O)oc23)cc(OC)c1OC (stereo unspecified),> 25 µM (inactive),> 25 µM,> 25 µM,> 25 µM (inactive),> 25 µM,> 25 µM
